Test results as given in US7727736B2, “Soluble phospholipids for use in clotting factor assays” (The University of North Carolina at Chapel Hill, priority 2003, dated 2010).

Columns and labels:
[1] = target: APC (Homo sapiens, UniProt P04070); assay: SPS binding to APC; settings: other experiments
Source text: Proteolysis at Arg^506 leads to partial inactivation, but proteolysis at Arg^306 is necessary for full inactivation (Kalafatis & Mann (1993) J. Biol. Chemistry 268 27246; Nicolaes et al., (1995) J. Biol. Chemistry (1995) 270 21158). […] The rate of proteolysis of the bond at Arg^306 increased from undetectable to a value of kcat/KM=3-3.5×10^6 M^−1sec^−1, identical to the rate reported with PS-containing membranes.

[2] = target: T1, factor Xa binding to factor Va2 (Homo sapiens, UniProt P00742+P12259); assay: Prothrombinase assembly monitored by initial rate of thrombin formation (DAPA fluorescence, stopped flow), FVa2; assay type: biochemical; settings: in presence of 400 μM C6PS
T1 construct: Human prothrombin and factor Xa; tissue Hematologic Technologies Inc. (factor Xa only); factor Xa purchased
T1 sequence (P00742 41-179 limits assumed): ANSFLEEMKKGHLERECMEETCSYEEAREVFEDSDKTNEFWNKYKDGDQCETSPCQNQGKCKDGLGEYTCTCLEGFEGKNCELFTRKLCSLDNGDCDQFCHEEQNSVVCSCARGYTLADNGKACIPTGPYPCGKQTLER
T1 sequence (P00742 235-488 limits assumed): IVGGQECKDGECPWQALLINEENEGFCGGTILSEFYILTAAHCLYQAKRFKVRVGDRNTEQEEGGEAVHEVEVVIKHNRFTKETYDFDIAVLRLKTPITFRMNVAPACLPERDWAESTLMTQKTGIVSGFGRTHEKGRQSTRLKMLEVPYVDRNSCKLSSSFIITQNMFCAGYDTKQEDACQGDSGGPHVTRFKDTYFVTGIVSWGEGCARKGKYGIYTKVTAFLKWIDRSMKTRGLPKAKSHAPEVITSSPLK
T1 sequence (P12259 29-737 limits assumed): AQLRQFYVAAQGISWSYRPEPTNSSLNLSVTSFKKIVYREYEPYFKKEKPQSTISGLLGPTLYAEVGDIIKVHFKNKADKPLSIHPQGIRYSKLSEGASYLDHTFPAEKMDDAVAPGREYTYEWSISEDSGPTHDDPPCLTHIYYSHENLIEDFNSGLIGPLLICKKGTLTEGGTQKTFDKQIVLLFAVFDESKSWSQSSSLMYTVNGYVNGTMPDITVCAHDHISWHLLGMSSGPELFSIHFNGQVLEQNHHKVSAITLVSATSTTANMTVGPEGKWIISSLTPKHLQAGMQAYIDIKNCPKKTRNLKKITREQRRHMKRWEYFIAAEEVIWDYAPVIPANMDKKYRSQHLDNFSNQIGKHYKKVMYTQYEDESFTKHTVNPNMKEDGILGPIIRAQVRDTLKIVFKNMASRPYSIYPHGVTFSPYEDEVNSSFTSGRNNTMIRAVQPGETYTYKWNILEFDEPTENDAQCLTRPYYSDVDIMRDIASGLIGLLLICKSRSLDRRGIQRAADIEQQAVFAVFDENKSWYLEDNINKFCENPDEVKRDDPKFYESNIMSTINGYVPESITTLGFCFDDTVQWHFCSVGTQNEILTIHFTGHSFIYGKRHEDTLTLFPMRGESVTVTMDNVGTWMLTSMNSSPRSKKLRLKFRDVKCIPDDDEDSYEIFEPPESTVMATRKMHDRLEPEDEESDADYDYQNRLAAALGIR
T1 sequence (P12259 1574-2224 limits assumed): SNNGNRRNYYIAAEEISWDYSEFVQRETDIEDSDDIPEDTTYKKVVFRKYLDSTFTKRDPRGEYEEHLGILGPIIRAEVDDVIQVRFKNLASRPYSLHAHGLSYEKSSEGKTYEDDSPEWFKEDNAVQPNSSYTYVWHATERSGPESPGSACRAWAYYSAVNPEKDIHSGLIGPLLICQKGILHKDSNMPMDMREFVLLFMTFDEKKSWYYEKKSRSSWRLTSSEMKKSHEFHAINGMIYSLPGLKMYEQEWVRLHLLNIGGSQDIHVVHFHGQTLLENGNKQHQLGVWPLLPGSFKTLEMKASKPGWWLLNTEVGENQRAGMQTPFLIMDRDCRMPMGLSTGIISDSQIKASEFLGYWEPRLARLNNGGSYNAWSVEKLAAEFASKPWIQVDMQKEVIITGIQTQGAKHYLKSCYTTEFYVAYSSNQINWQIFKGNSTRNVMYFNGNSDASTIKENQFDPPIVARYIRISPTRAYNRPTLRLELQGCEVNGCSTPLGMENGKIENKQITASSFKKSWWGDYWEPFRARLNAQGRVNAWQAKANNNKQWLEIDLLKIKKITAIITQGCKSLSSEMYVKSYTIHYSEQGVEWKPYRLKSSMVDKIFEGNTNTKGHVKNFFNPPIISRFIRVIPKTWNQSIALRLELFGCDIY
Protocol: The initial rate of thrombin formation was monitored by DAPA fluorescence. Stopped flow fluorescence measurements were performed at 37° C. with final mixing chamber concentrations of 1 μM prothrombin, 5 μM DAPA, 1 nM factor Xa, 400 μM C6PS and various concentrations of factor Va2 (Panel A) or Va1 (Panel B) in 50 mM Tris-HCl (pH 7.5), 150 mM NaCl, 5 mM CaCl2. The initial rates were fit to a single binding site model as described herein to determine the Kd^eff of factor Xa binding to factor Va2 in presence of 400 μM C6PS (2.4±0.3 nM). […] The abrupt appearance of aggregates at 700 μM C6PS defines the critical micelle concentration under these experimental conditions.
Fluorescence Stopped-Flow Measurements. The rates of thrombin formation from either MzIIa or Pre2 (with equimolar fragment 1.2), or of thrombin plus MzIIa formation from human prothrombin, were estimated from the time-dependent fluorescence change of DAPA bound to the activation products. […] The calculation of rates from measurements of initial fluorescence intensity (F0) and intensity at the completion of the reaction (F∞) is well-established (Nesheim and Mann (1983) supra; Wu, et al. (2002) supra).
Initial rates of prothrombin activation by FXa as monitored by DAPA fluorescence are shown in FIG. 2 as a function of added FVa2 (Panel A) and FVa1 (Panel B) in the presence of 400 μM C6PS. […]

Sequence of APC (P04070 43-197 limits assumed): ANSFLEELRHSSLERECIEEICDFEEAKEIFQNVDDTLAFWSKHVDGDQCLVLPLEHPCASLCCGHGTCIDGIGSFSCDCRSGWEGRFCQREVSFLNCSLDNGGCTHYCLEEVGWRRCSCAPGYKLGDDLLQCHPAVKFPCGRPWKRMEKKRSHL
Sequence of APC (P04070 212-461 limits assumed): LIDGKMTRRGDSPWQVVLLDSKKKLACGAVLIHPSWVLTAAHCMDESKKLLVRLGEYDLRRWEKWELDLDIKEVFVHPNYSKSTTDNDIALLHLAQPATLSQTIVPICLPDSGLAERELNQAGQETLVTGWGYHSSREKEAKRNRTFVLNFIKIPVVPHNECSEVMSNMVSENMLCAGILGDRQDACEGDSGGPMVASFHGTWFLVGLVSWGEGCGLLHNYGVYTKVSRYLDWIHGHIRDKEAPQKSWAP

## CCCCCC(=O)OC[C@H](COP(=O)(O)OC[C@H](N)C(=O)O)OC(=O)CCCCC [C6PS, 1,2-dicaproyl-sn-glycero-3-phospho-L-serine]
[1]
  Kd: ~1000 nM
[2]
  fold tighter FVa2 interaction with FXa than FVa1: at least 300 fold
